Active and inactive are the calls of the source. The rule behind the calls is not given here.
Target: Bcl-2-related protein A1 (Homo sapiens) (UniProt Q16548)
Test: inhibitors of Bim binding to Bfl-1, dose response, biochemical, multiplexed, bead-based flow cytometry (AID 1320); note: test concentration not given here
Settings: Bim peptide-Bfl-1 binding, fluorescence

Sequence of Bcl-2-related protein A1 (Homo sapiens) (Q16548 whole entry, looked up): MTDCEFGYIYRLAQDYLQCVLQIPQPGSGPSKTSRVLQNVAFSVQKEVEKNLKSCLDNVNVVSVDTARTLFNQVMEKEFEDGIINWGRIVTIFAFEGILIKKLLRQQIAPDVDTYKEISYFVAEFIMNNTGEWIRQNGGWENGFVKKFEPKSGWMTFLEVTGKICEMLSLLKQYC

Structure (SMILES)	percent span (inhibition)
CCN1CCN(c2cc(C)c3cc(NC(=S)N4CCCCC4)ccc3n2)CC1	inactive
Cc1cccc(/C=N/N(CCO)C2=NS(=O)(=O)c3ccccc32)c1	inactive
OC(COc1ccc2ccccc2c1)CN1CCCC1 (stereo not given)	inactive
COc1ccc(NC(=O)c2ccco2)cc1NC(=O)c1ccco1	inactive
CCN1/C(=C/c2ccc3cc(C)cc(C)c3[n+]2CC)Sc2cc(C)ccc21	inactive
c1ccc(-c2nnc(OCCN3CCOCC3)c3ccccc23)cc1	inactive
CSc1nnc2ccc(-c3cccs3)nn12	inactive
Clc1nssc1=Nc1ccccc1	inactive
Cc1ccc(-c2cc(C(=O)Nc3ccccn3)c3ccccc3n2)o1	inactive
CNc1nc2ccccc2n1/N=C/c1cccc(OC)c1OC	inactive
c1ccc(Nc2nc(-c3ccncc3)cs2)cc1	inactive
COc1ccc2nc(NC(=O)c3ccc(-c4cccc([N+](=O)[O-])c4)o3)sc2c1	inactive
O=C1CCc2cc(S(=O)(=O)NCCCC(=O)N3CCN(Cc4ccc5c(c4)OCO5)CC3)ccc2N1	inactive
CC(C)NS(=O)(=O)c1ccc(OCC(=O)Nc2ccc(F)cc2)cc1	inactive
CCCCN(C(=O)CCC(=O)Nc1cc(C)on1)C(C(=O)NC(C)(C)C)c1cccc(OC)c1OC (stereo not given)	inactive
Cc1ccccc1-n1c(SCc2cccc(F)c2)nc2[nH]ncc2c1=O	inactive
c1ccc(-c2nc(N3CCCCC3)nc3ccccc23)cc1	inactive
CN(/N=C/c1cccnc1)C1=NS(=O)(=O)c2ccccc21	inactive
O=C(COc1ccccc1)Nc1ccc2c(c1)Cc1cc(NC(=O)COc3ccccc3)ccc1-2	inactive
COc1cccc(/C=N/NC(=O)c2cc3cc([N+](=O)[O-])ccc3s2)c1O	inactive
CCOCCOc1nc2c(c(=O)n(C)c(=O)n2C)n1CCc1ccccc1	inactive
O=C(Nc1nnc(SCc2ccccn2)s1)C1CC(=O)N(c2ccccc2)C1 (stereo not given)	inactive
CC(C(=O)Nc1cc([N+](=O)[O-])ccc1Cl)N1CCN(c2ccc(O)cc2)CC1 (stereo not given)	inactive
Cc1csc(SCCn2c(N3CCN(c4ccccc4)CC3)nc3c2c(=O)[nH]c(=O)n3C)n1	inactive

Structure (SMILES)	percent span (inhibition)
COc1cc(NC(=O)c2ccc3c(c2)OCO3)ccc1NC(=O)c1ccco1	inactive
CCOC(=O)c1[nH]cnc1C(=O)NC(C)C	inactive
O=C(CSc1nnc(Cc2ccccc2)o1)NCc1ccco1	inactive
COc1ccc(S(=O)(=O)NCCSc2ccccc2)cc1OC	inactive
CCCCCCn1nc(C(=O)Nc2nc3c(s2)CCCC3)c2ccccc2c1=O	inactive
CS(=O)(=O)NN1C(=O)c2ccccc2NC1c1cccc2cccnc12 (stereo not given)	inactive
CC(=O)N1CCN(C(=O)c2ccc(-n3c(C)ccc3C)cc2)CC1	inactive
O=C1c2ccccc2C(=O)N1c1cccc2cccnc12	inactive
CCC(CC)C(=O)Nc1cccc(S(=O)(=O)c2cccc(NC(=O)C(CC)CC)c2)c1	inactive
CN(C)c1cccc(NC(=O)C2(C)CC2(Cl)Cl)c1 (stereo not given)	inactive
Nc1ccc(N2CCCCCC2)cc1	inactive
O=C(NC1=C(Nc2ccc(F)cc2)C(=O)c2ccccc2C1=O)c1ccc(Cl)cc1	inactive
Oc1ccc(C=NCC2COc3ccccc3O2)cc1 (stereo not given)	inactive
COc1cc(/C=N/NC(=O)CN(Cc2ccco2)S(=O)(=O)c2ccccc2)ccc1O	inactive
CN1CCN(c2ccc(N)cc2)CC1	inactive
O=C(C1=NN[C@@H]2C(=O)N(c3cccc(F)c3)C(=O)[C@H]12)c1ccc2ccccc2n1	inactive
Cc1ccc(-c2cc(-c3ccccc3)c(C#N)c(N)n2)o1	inactive
CCOc1cc(NC(=S)NC)c(OCC)cc1NC(=O)c1ccc(OC)cc1	inactive
CCOc1ccc(C2=Nn3c(nnc3-c3ccco3)SC2)cc1	inactive
COc1ccc(N2CCN(CCCNC(=O)CCCn3c(=O)[nH]c4ccsc4c3=O)CC2)cc1	inactive
Cc1ccc(CC(=O)OCCNC(=O)c2cccnc2)cc1	inactive
COc1cc2[nH]c(=S)nc(NCCc3ccc(S(N)(=O)=O)cc3)c2cc1OC	inactive
Cc1ccc(-c2cc(C(=O)N3CCN(c4ncccn4)CC3)c3cc(Br)ccc3n2)o1	inactive
CCOc1cc(S(=O)(=O)N2CCCCC2)ccc1F	inactive

Structure (SMILES)	percent span (inhibition)
COC(=O)c1cc(OC)c(OC)cc1NC(=O)Nc1cccc(C(C)=O)c1	inactive
O=C(Cc1ccccc1)N/N=C/c1cccn1-c1ccc([N+](=O)[O-])cc1	inactive
COc1cc2c(cc1OC)C(c1ccccc1F)OC(=O)C2 (stereo not given)	inactive
O=C(N/N=C/c1cccc([N+](=O)[O-])c1)c1cccs1	inactive
COc1ccc(N2CC(C(=O)Nc3nnc(SCC(=O)c4ccccc4)s3)CC2=O)cc1 (stereo not given)	inactive
O=C(OCC(=O)c1ccc[nH]1)c1ccccc1	inactive
CC(=O)Nc1ccc(NC2=C(Cl)C(=O)c3ccccc3C2=O)cc1	inactive
Cc1cc(C)c(C)c(S(=O)(=O)N2CCN(CC(=O)NC(=O)NCc3ccccc3)CC2)c1C	inactive
CCOC(=O)c1c2c3c(c(Cl)ccc3[nH]c1=O)C(=O)c1ccccc1-2	inactive
C1=CC2c3ccccc3NC(c3ccncc3)C2C1 (stereo not given)	inactive
CN1C(=O)/C(=C/c2ccc(-c3ccccc3[N+](=O)[O-])o2)SC1=Nc1ccc(Cl)c(C(=O)O)c1	inactive
c1ccc(-c2nc(N3CCCCCC3)c3ccccc3n2)nc1	inactive
COC(=O)c1sc(NC(=O)c2ccc(Cn3cc(Cl)cn3)o2)c(C#N)c1C	inactive
NC(=O)c1sc2nc3c(c(-c4ccco4)c2c1N)CCC3	inactive
OCCN1CCN(CCCc2c3c(cc4c2CCC4)CCC3)CC1	inactive
Cc1nc(NC(=O)CC(C)C)sc1-c1csc(Nc2ccc(Cl)cc2)n1	inactive
CCOc1ccc(N2C(=O)C(Cl)=C(Nc3ccccc3O)C2=O)cc1	inactive
Cn1c(=O)c(C(=O)COC(=O)c2cc(-c3ccco3)nc3ccccc23)c(N)n(CC2CC2)c1=O	inactive
COc1c(F)c(F)c(C(=O)Nc2ccccc2N2CCN(C(=O)C(C)C)CC2)c(F)c1F	inactive
O=C(Nc1ccccc1)Nc1ccc2ncoc2c1	inactive
O=C1c2ccccc2C(=O)N1CN(C(=O)COc1ccc(Cl)cc1Cl)c1cccc(F)c1	inactive
O=C(Oc1ccc(-c2cnc3ccccc3n2)cc1)c1cccc([N+](=O)[O-])c1	inactive

From PubChem BioAssay AID1320 (NMMLSC, 2008)
